In patent US12404532B2, “Composition for producing glucosylated steviol glycoside including glucosyltransferase and method of producing glucosylated steviol glycoside using the same” (CJ CHEILJEDANG CORPORATION, priority 2019, dated 2025):
“Also recorded” adds a separate entry of the source. Each block holds one molecule with its values, some of them ahead of it.

Columns and labels:
[1] = tested on: Lactobacillus mali crude enzyme solution including the enzyme including the amino acid sequence of SEQ ID NO: 1; assay: Glucose transfer to steviol glycoside by crude enzyme solution (HPLC); assay type: biochemical; settings: 6% substrate, 6% white sugar, 50 mM sodium acetate buffer pH 5.0, 40 °C, 24 hours
Method: 6% Rebaudioside A (purecircle) or 6% Stevioside (carbosynth), and 6% white sugar (CJ CheilJedang) were dissolved in a 50 mM sodium acetate buffer (pH 5.0), and then the Lactobacillus mali crude enzyme solution including the enzyme including the amino acid sequence of SEQ ID NO: 1 was added thereto, and allowed to react at 40° C. for 24 hours. Thereafter, whether glucosylated Rebaudioside A or glucosylated Stevioside was produced was confirmed by HPLC, and the results are shown in FIGS. 2 to 5. Meanwhile, HPLC analysis conditions are as follows:
FIGS. 2 and 4 show HPLC analysis results before the enzyme reaction, and FIGS. 3 and 5 show HPLC analysis results after the enzyme reaction.

[2] = tested on: enzyme including the amino acid sequence of SEQ ID NO: 1; assay: Glucose transfer to steviol glycoside by purified recombinant enzyme (HPLC); assay type: biochemical, Lactobacillus mali; settings: 6% substrate, 6% white sugar, 50 mM sodium acetate buffer pH 5.0, 40 °C, 24 hours, purified enzyme of Example 5-1
Method: A polynucleotide encoding the amino acid sequence of SEQ ID NO: 1 was prepared by a polynucleotide synthesis method (Bioneer Corp.), and the obtained polynucleotide was inserted into a pBT7-N-His vector, which was then transformed into E. coli BL21(DE3). The transformed E. coli was smeared on a plate medium containing ampicillin to obtain a recombinant strain (microorganism).
The recombinant E. coli strain was seeded in 5 mL of an LB medium containing ampicillin, and seed culture was carried out at 37° C. until optical density at 600 nm reached 2.0. The seed culture broth was added to 500 mL of an LB medium containing ampicillin, and main culture was carried out. Thereafter, when optical density at 600 nm reached 0.4, 0.1 mM isopropyl β-D-thiogalactopyranoside (IPTG) was added to induce mass-expression of the enzyme including the amino acid sequence of SEQ ID NO: 1. During the process, an agitation speed was 180 rpm, and culture temperature was maintained at 37° C. After IPTG addition, the agitation speed was 120 rpm, and culture temperature was maintained at 16° C.
The culture broth was centrifuged at 10,000×g at 4° C. for 20 minutes to obtain a cell pellet. A 50 mM tris-HCl buffer solution was added to the pellet, and re-suspended as a cell solution. The cell solution was sonicated using a sonicator. […]

[3] = Panel evaluation of actual sweetness and quality of sweetness; settings: for Actual Sweetness / Evaluation of Quality of Sweetness: dissolved in water, provided to panels
From the text: The known material (i.e., α-(1,4) glucosylated Rebaudioside A) and the α-(1,6) glucosylated Rebaudioside A of Example 4 were independently dissolved in water and provided to panels for evaluation of actual sweetness and quality of sweetness.

[4] = assay type: physicochemical
Method: The solubility of steviol glycoside and glucosylated steviol glycoside was measured.
Specifically, the solubility of Rebaudioside A (RA), Stevioside (STV), glucosylated Rebaudioside A (RA-Glu) of Example 4, and glucosylated Stevioside (STV-Glu) of Example 4 was measured, respectively.
Each 6 g of Rebaudioside A, Stevioside, glucosylated Rebaudioside A, and glucosylated Stevioside was mixed with 10 mL, and then dissolved by sonication at 50° C. for 60 minutes. The resultant was incubated for 1 week in a water bath at 5° C., 15° C., 25° C., 35° C., 45° C., or 55° C. Thereafter, the resulting solution was centrifuged at 12,000 rpm for 10 minutes, and 1 mL of the supernatant was collected and dried in an oven at 105° C. to measure the solubility, which is shown in Table 4.

[5] = Sugar hydrolysis activity by reducing sugar determination method (DNS method); assay type: biochemical; settings: 200 mM sugar solution, 40 °C, 10 minutes
Method: To confirm the presence of the desired enzyme, sugar hydrolysis activity of each fraction was examined by a reducing sugar determination method (DNS method).
A 200 mM sugar solution and each fraction were mixed at a ratio of 1:1 in a 50 mM sodium acetate buffer, and allowed to react in a water bath at 40° C. for 10 minutes, followed by inactivation at 100° C. A DNS reagent was added thereto at a ratio of 1:3, and then mixed and allowed to react at 100° C. for 5 minutes, and then DNS reaction was immediately stopped on ice. Thereafter, optical density (OD) of the DNS reagent was measured at 575 nm, and the activity was confirmed from a constructed fructose standard curve. At this time, 1 unit is defined by the amount (mL) of an enzyme that produces 1 μmole of fructose per 1 minute.

Molecule: C=C1C[C@@]23CC[C@H]4[C@@](C)(CCC[C@@]4(C)C(=O)O[C@@H]4O[C@H](CO)[C@@H](O)[C@H](O)[C@H]4O)[C@@H]2CC[C@]1(O[C@@H]1O[C@H](CO)[C@@H](O)[C@H](O[C@@H]2O[C@H](CO)[C@@H](O)[C@H](O)[C@H]2O)[C@H]1O[C@@H]1O[C@H](CO)[C@@H](O)[C@H](O)[C@H]1O)C3 [RA, Rebaudioside A, reference compound]
Conversion rate into glucosylated steviol glycoside [1]: about 90% | Conversion rate into glucosylated Rebaudioside A [2]: about 90%

Solubility (%) [4]: ≥ 40 ↑ % | Solubility as compared with Stevioside and Rebaudioside A, respectively [4]: remarkably increased solubility
Molecule: C=C1C[C@@]23CC[C@H]4[C@@](C)(CCC[C@@]4(C)C(=O)O[C@@H]4O[C@H](CO[C@H]5O[C@H](CO)[C@@H](O)[C@H](O)[C@H]5O)[C@@H](O)[C@H](O)[C@H]4O)[C@@H]2CC[C@]1(O[C@@H]1O[C@H](CO)[C@@H](O)[C@H](O[C@@H]2O[C@H](CO)[C@@H](O)[C@H](O)[C@H]2O)[C@H]1O[C@@H]1O[C@H](CO)[C@@H](O)[C@H](O)[C@H]1O)C3 [RA-Glu, glucosylated Rebaudioside A]
Actual Sweetness [3]: 26 | Evaluation of Quality of Sweetness ([3]; listed as α-(1,6) glucosylated Rebaudioside A): better quality of sweetness; also recorded: Gives sweet taste in the beginning, has | Sweetness as compared with the α-(1,4) glucosylated Rebaudioside A ([3]; summary of Table 5): high sweetness

Molecule: C=C1C[C@@]23CC[C@H]4[C@@](C)(CCC[C@@]4(C)C(=O)O[C@@H]4O[C@H](CO)[C@@H](O)[C@H](O)[C@H]4O)[C@@H]2CC[C@]1(O[C@@H]1O[C@H](CO)[C@@H](O)[C@H](O)[C@H]1O[C@@H]1O[C@H](CO)[C@@H](O)[C@H](O)[C@H]1O)C3 [STV, Stevioside, reference compound]
Conversion rate into glucosylated steviol glycoside [1]: about 90%

Solubility (%) [4]: ≥ 40 ↑ % | Solubility as compared with Stevioside and Rebaudioside A, respectively [4]: remarkably increased solubility
Molecule: C=C1C[C@@]23CC[C@H]4[C@@](C)(CCC[C@@]4(C)C(=O)O[C@@H]4O[C@H](CO[C@H]5O[C@H](CO)[C@@H](O)[C@H](O)[C@H]5O)[C@@H](O)[C@H](O)[C@H]4O)[C@@H]2CC[C@]1(O[C@@H]1O[C@H](CO)[C@@H](O)[C@H](O)[C@H]1O[C@@H]1O[C@H](CO)[C@@H](O)[C@H](O)[C@H]1O)C3 [STV-Glu, glucosylated Stevioside]

Molecule: α-(1,4) glucosylated Rebaudioside A [reference compound]
Actual Sweetness [3]: 19 | Evaluation of Quality of Sweetness [3]: Bitter taste is stronger than sweet taste,

B1: 75 kDa protein of Fraction No. 2: 75 kDa protein purified from Lactobacillus mali culture, identified by LC-MS as amino acid sequence SEQ ID NO: 1; glucosyltransferase (protein, listed as Lactobacillus mali)
chain: MDQMVLETQQWLNKTYGGVSGFGSVTEDGLTGWGTVYGLTRALQHELGITGLVNNFGPTSKQKFNNIAKTIVVGYTGNIAYIIQGGFWCKGITPGEFDGKFSADTASAVTTMKTKAGLADTSSSVDGNFMAALLNMSSFDLLTGGDSKVREMQQQLNHDYLAYTGILPCDGIYQRDTNSALIYALQAEEKISTSVATGAYGATTKKDTPTVKEGTTNNFVRILQWGLYVNNKAYTGAFDGVYDSAVVAAVKEFEETMALDSTDGTSAGVDIFMSLLTSAGNPDRSAIACDTSYQLNATRVATLKNAGYSIVGRYLTGTVGSGTSERAKNLTTDEITAITTGGLKIFPIYQDGASDKEAYFTAAQGKTDGTKAVYAAQDLGFKEGVVIYFAVDADIQAGDIAGSAKVYFEALYDIVTSYGYEVGIYGTRNVSATIISAGLATKAFISDMSTGYSGNLGYSIPDEWAFDQFSEISIGDFAIDKDATTSARETATGSFGVGGESGYGNAEDLAKINTIIDALSQKKNFSYLSGLKIEKTSKEYEIPGFAVDFYVQVKFEASVSEPGDNVGVVYNVSNGKFESDFTDTIAGVVALSDEINKEDINSALTELSSLINNGQIWVEPVTKGSDAGIALHIKSTFDHTLDSGETIELEYEIIIDEIFHKIEVVPTGVPNTTANDYNSLFPNGIKEFVGFSIVAGLATGGIYYVVTAVGATAAVVTTSILALIALLKNNDTGV
Sugar hydrolysis activity [5]: had sugar hydrolysis activity
